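1) Cells in 96-well plates. 2) Compound, 48 h, 5 concentrations. 3) Linear interpolation between surrounding doses. 4) Unreached endpoint = highest concentration. The concentration for 50% growth inhibition is given as GI50. TGI marks complete inhibition of growth.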
Key:
Assay in all cases: growth of human tumour cells (NCI), 48 h
SR leukemia = tested on: SR leukemia
NCI-H23 lung = tested on: NCI-H23 lung
NCI-H226 lung = tested on: NCI-H226 lung
RPMI-8226 leukemia = tested on: RPMI-8226 leukemia
OVCAR-5 ovarian = tested on: OVCAR-5 ovarian
UO-31 renal = tested on: UO-31 renal
SNB-75 CNS = tested on: SNB-75 CNS
UACC-62 melanoma = tested on: UACC-62 melanoma
SK-MEL-28 melanoma = tested on: SK-MEL-28 melanoma
OVCAR-3 ovarian = tested on: OVCAR-3 ovarian
MDA-MB-231 breast = tested on: MDA-MB-231 breast
MDA-MB-435 = tested on: MDA-MB-435
HCC-2998 colon = tested on: HCC-2998 colon
SNB-19 CNS = tested on: SNB-19 CNS
OVCAR-4 ovarian = tested on: OVCAR-4 ovarian
COLO 205 colon = tested on: COLO 205 colon
SF-539 CNS = tested on: SF-539 CNS
NCI-H522 lung = tested on: NCI-H522 lung
CCRF-CEM leukemia = tested on: CCRF-CEM leukemia
RXF 393 renal = tested on: RXF 393 renal
UACC-257 melanoma = tested on: UACC-257 melanoma
DU-145 prostate = tested on: DU-145 prostate
T-47D breast = tested on: T-47D breast
SK-OV-3 ovarian = tested on: SK-OV-3 ovarian
SF-295 CNS = tested on: SF-295 CNS
SF-268 CNS = tested on: SF-268 CNS
HCT-15 colon = tested on: HCT-15 colon
CAKI-1 renal = tested on: CAKI-1 renal
OVCAR-8 ovarian = tested on: OVCAR-8 ovarian
HOP-92 NSCLC = tested on: HOP-92 NSCLC
SK-MEL-5 melanoma = tested on: SK-MEL-5 melanoma
LOX IMVI melanoma = tested on: LOX IMVI melanoma
NCI/ADR-RES ovarian = tested on: NCI/ADR-RES ovarian
U251 CNS = tested on: U251 CNS
A498 renal = tested on: A498 renal
SN12C renal = tested on: SN12C renal
TK-10 renal = tested on: TK-10 renal
786-0 renal = tested on: 786-0 renal
A549 NSCLC = tested on: A549 NSCLC
HOP-62 NSCLC = tested on: HOP-62 NSCLC
KM12 colon = tested on: KM12 colon
BT-549 breast = tested on: BT-549 breast
EKVX NSCLC = tested on: EKVX NSCLC
NCI-H460 lung = tested on: NCI-H460 lung
HL-60(TB) leukemia = tested on: HL-60(TB) leukemia
ACHN renal = tested on: ACHN renal
M14 melanoma = tested on: M14 melanoma
HS 578T breast = tested on: HS 578T breast
SW-620 colon = tested on: SW-620 colon
MALME-3M melanoma = tested on: MALME-3M melanoma
PC-3 prostate = tested on: PC-3 prostate
IGROV1 ovarian = tested on: IGROV1 ovarian
HT29 colon = tested on: HT29 colon
MDA-N = tested on: MDA-N
SK-MEL-2 melanoma = tested on: SK-MEL-2 melanoma
MCF7 breast = tested on: MCF7 breast
HCT-116 colon = tested on: HCT-116 colon
K-562 leukemia = tested on: K-562 leukemia
MOLT-4 leukemia = tested on: MOLT-4 leukemia

Structure (SMILES): COC(=O)C1(CCC(=O)N(C)c2ccccc2)NNC2C(=O)N(c3ccccc3)C(=O)C21 (stereo unspecified)
- TGI (SR leukemia): > 10 µM
- TGI (NCI-H23 lung): > 10 µM
- TGI (NCI-H226 lung): > 10 µM
- TGI (RPMI-8226 leukemia): > 10 µM
- TGI (OVCAR-5 ovarian): > 10 µM
- TGI (UO-31 renal): > 10 µM
- TGI (SNB-75 CNS): > 10 µM
- TGI (UACC-62 melanoma): > 10 µM
- TGI (SK-MEL-28 melanoma): > 10 µM
- TGI (OVCAR-3 ovarian): > 10 µM
- TGI (MDA-MB-231 breast): > 10 µM
- TGI (MDA-MB-435): > 10 µM
- TGI (HCC-2998 colon): > 10 µM
- TGI (SNB-19 CNS): > 10 µM
- TGI (OVCAR-4 ovarian): > 10 µM
- TGI (COLO 205 colon): > 10 µM
- TGI (SF-539 CNS): > 10 µM
- TGI (NCI-H522 lung): > 10 µM
- TGI (CCRF-CEM leukemia): > 10 µM
- TGI (RXF 393 renal): > 10 µM
- TGI (UACC-257 melanoma): > 10 µM
- TGI (DU-145 prostate): > 10 µM
- TGI (T-47D breast): > 10 µM
- TGI (SK-OV-3 ovarian): > 10 µM
- TGI (SF-295 CNS): > 10 µM
- TGI (SF-268 CNS): > 10 µM
- TGI (HCT-15 colon): > 10 µM
- TGI (CAKI-1 renal): > 10 µM
- TGI (OVCAR-8 ovarian): > 10 µM
- TGI (HOP-92 NSCLC): > 10 µM
- TGI (SK-MEL-5 melanoma): > 10 µM
- TGI (LOX IMVI melanoma): > 10 µM
- TGI (NCI/ADR-RES ovarian): > 10 µM
- TGI (U251 CNS): > 10 µM
- TGI (A498 renal): > 10 µM
- TGI (SN12C renal): > 10 µM
- TGI (TK-10 renal): > 10 µM
- TGI (786-0 renal): > 10 µM
- TGI (A549 NSCLC): > 10 µM
- TGI (HOP-62 NSCLC): > 10 µM
- TGI (KM12 colon): > 10 µM
- TGI (BT-549 breast): > 10 µM
- TGI (EKVX NSCLC): > 10 µM
- TGI (NCI-H460 lung): > 10 µM
- TGI (HL-60(TB) leukemia): > 10 µM
- TGI (ACHN renal): > 10 µM
- TGI (M14 melanoma): > 10 µM
- TGI (HS 578T breast): > 10 µM
- TGI (SW-620 colon): > 10 µM
- TGI (MALME-3M melanoma): > 10 µM
- TGI (PC-3 prostate): > 10 µM
- TGI (IGROV1 ovarian): > 10 µM
- TGI (HT29 colon): > 10 µM
- TGI (MDA-N): > 10 µM
- TGI (SK-MEL-2 melanoma): > 10 µM
- TGI (MCF7 breast): > 10 µM
- TGI (HCT-116 colon): > 10 µM

Structure (SMILES): CCN(CC)C(=S)SS(=O)(=O)c1ccc(N)cc1
- TGI (SR leukemia): > 100 µM
- TGI (NCI-H23 lung): > 100 µM
- GI50 (NCI-H226 lung): 99.2 µM
- TGI (NCI-H226 lung): > 100 µM
- TGI (RPMI-8226 leukemia): > 100 µM
- TGI (OVCAR-5 ovarian): > 100 µM
- TGI (UO-31 renal): > 100 µM
- GI50 (SNB-75 CNS): 48.5 µM
- TGI (SNB-75 CNS): > 100 µM
- TGI (UACC-62 melanoma): > 100 µM
- GI50 (SK-MEL-28 melanoma): > 100 µM
- TGI (SK-MEL-28 melanoma): > 100 µM
- GI50 (OVCAR-3 ovarian): > 100 µM
- TGI (OVCAR-3 ovarian): > 100 µM
- GI50 (MDA-MB-231 breast): > 100 µM
- TGI (MDA-MB-231 breast): > 100 µM
- GI50 (MDA-MB-435): > 100 µM
- TGI (MDA-MB-435): > 100 µM
- TGI (HCC-2998 colon): > 100 µM
- TGI (K-562 leukemia): > 100 µM
- TGI (SNB-19 CNS): > 100 µM
- GI50 (OVCAR-4 ovarian): > 100 µM
- TGI (OVCAR-4 ovarian): > 100 µM
- GI50 (COLO 205 colon): > 100 µM
- TGI (COLO 205 colon): > 100 µM
- TGI (NCI-H522 lung): > 26.6 µM
- GI50 (CCRF-CEM leukemia): > 100 µM
- TGI (CCRF-CEM leukemia): > 100 µM
- TGI (RXF 393 renal): > 100 µM
- GI50 (UACC-257 melanoma): > 100 µM
- TGI (UACC-257 melanoma): > 100 µM
- GI50 (DU-145 prostate): > 100 µM
- TGI (DU-145 prostate): > 100 µM
- TGI (T-47D breast): > 100 µM
- TGI (SK-OV-3 ovarian): > 100 µM
- GI50 (SF-295 CNS): > 100 µM
- TGI (SF-295 CNS): > 100 µM
- GI50 (SF-268 CNS): > 100 µM
- TGI (SF-268 CNS): > 100 µM
- GI50 (HCT-15 colon): > 100 µM
- TGI (HCT-15 colon): > 100 µM
- TGI (CAKI-1 renal): > 90.2 µM
- GI50 (OVCAR-8 ovarian): > 100 µM
- TGI (OVCAR-8 ovarian): > 100 µM
- TGI (HOP-92 NSCLC): > 100 µM
- TGI (SK-MEL-5 melanoma): > 100 µM
- GI50 (LOX IMVI melanoma): > 100 µM
- TGI (LOX IMVI melanoma): > 100 µM
- GI50 (NCI/ADR-RES ovarian): > 100 µM
- TGI (NCI/ADR-RES ovarian): > 100 µM
- GI50 (U251 CNS): > 100 µM
- TGI (U251 CNS): > 100 µM
- TGI (A498 renal): > 94.2 µM
- GI50 (SN12C renal): > 100 µM
- TGI (SN12C renal): > 100 µM
- GI50 (TK-10 renal): > 100 µM
- TGI (TK-10 renal): > 100 µM
- TGI (786-0 renal): > 100 µM
- TGI (A549 NSCLC): > 100 µM
- TGI (HOP-62 NSCLC): > 100 µM
- TGI (KM12 colon): > 100 µM
- GI50 (BT-549 breast): > 100 µM
- TGI (BT-549 breast): > 100 µM
- TGI (EKVX NSCLC): > 100 µM
- TGI (NCI-H460 lung): > 100 µM
- GI50 (HL-60(TB) leukemia): > 100 µM
- TGI (HL-60(TB) leukemia): > 100 µM
- TGI (ACHN renal): > 100 µM
- TGI (M14 melanoma): > 100 µM
- TGI (HS 578T breast): > 100 µM
- GI50 (SW-620 colon): > 100 µM
- TGI (SW-620 colon): > 100 µM
- GI50 (MALME-3M melanoma): 46.2 µM
- TGI (MALME-3M melanoma): > 100 µM
- GI50 (PC-3 prostate): 90.8 µM
- TGI (PC-3 prostate): > 100 µM
- TGI (IGROV1 ovarian): > 100 µM
- TGI (HT29 colon): > 100 µM
- TGI (MDA-N): > 100 µM
- TGI (SK-MEL-2 melanoma): > 100 µM
- TGI (MCF7 breast): > 100 µM
- GI50 (HCT-116 colon): > 100 µM
- TGI (HCT-116 colon): > 100 µM
- TGI (MOLT-4 leukemia): > 100 µM

— PubChem BioAssay (NCI)
